Test results as given in US20260250320A1, “LIPIDATED PEPTIDE INHIBITORS OF INTERLEUKIN-23 RECEPTOR” (Janssen Pharmaceutica NV, priority 2023, published 2026).
pIC50: −log10 of the molar value. *1 amine or outer side, *2 acyl side, *3 side chain or, on linkers, in order; H or OH if unused. Where a SMILES comes first, the peptide text is derived from it. Bridges are numbered along the chain shown (N, C = ends). Side-chain parts run from the residue outwards. [ ]: non-standard residue; d: D form. The star is where a group is joined. Me3N+(CH2)2O(CH2)2O(CH2)2CO = C[N+](C)(C)CCOCCOCCC(=O)*; PEG12 = NCCOCCOCCOCCOCCOCCOCCOCCOCCOCCOCCOCCOCCC(=O)O; CH2CH2OCH2CH2OCH2CH2NMe3+ = C[N+](C)(C)CCOCCOCC*; Trp(7-Me) = Cc1cccc2c(C[C@H](N)C(=O)O)c[nH]c12; C18 diacid = O=C(O)CCCCCCCCCCCCCCCCC(=O)*; γGlu = O=C(O)[C@H](CCC(=O)[*:2])N[*:1]; 2Nal = N[C@@H](Cc1ccc2ccccc2c1)C(=O)O; AEF = NCCOc1ccc(C[C@H](N)C(=O)O)cc1; X2 = C[N+](C)(C)C[C@@H](CC(=O)O)N*; 3Pal = N[C@@H](Cc1cccnc1)C(=O)O; Lys(Me) = CNCCCC[C@H](N)C(=O)O; NMeK = CN[C@@H](CCCCN)C(=O)O; Pen = CC(C)(S)[C@H](N)C(=O)O; Suc = O=C(CCC(=O)[*:2])[*:1]; Thp = NC1(C(=O)O)CCOCC1; X1 = C[N+](C)(C)CCCCC*; AEEA = NCCOCCOCC(=O)O; Sar = CNCC(=O)O

Columns and labels:
[1] = system: IL-23-stimulated phosphorylated STAT3 in peripheral blood mononuclear cells (PBMCs); test: PBMC pSTAT3 Assay; assay type: cell-based; settings: PBMCs from healthy donors; 30 min preincubation with peptide; IL-23 5 ng/mL for 30 min; phospho-STAT3 by MSD
Method in brief: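 Phospho-STAT3 quantified by Meso Scale assay in lysates of PBMCs exposed to IL-23 (5 ng/mL, 30 min, 37 °C) after 30 min peptide pretreatment. Cells were cryopreserved donor PBMCs activated 4 days with anti-CD3 plus IL-1β (100 ng/mL) and starved ~4 h; IC50 reported.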

IL-23R = target: T1, IL-23R (Homo sapiens, UniProt Q5VWK5); test: IL23R Reporter Assay; assay type: cell-based; settings: HEK293 cells containing IL-23R, IL-12Rβ1 and STAT-inducible firefly luciferase reporter; 10 ng/mL IL-23 (EC90); 5 h
T1 construct: HEK293 cells containing IL-23R, IL-12Rβ1 and a firefly luciferase reporter gene driven by a STAT-inducible promoter (Promega); host or cells: HEK293
T1 sequence (Q5VWK5 24-629): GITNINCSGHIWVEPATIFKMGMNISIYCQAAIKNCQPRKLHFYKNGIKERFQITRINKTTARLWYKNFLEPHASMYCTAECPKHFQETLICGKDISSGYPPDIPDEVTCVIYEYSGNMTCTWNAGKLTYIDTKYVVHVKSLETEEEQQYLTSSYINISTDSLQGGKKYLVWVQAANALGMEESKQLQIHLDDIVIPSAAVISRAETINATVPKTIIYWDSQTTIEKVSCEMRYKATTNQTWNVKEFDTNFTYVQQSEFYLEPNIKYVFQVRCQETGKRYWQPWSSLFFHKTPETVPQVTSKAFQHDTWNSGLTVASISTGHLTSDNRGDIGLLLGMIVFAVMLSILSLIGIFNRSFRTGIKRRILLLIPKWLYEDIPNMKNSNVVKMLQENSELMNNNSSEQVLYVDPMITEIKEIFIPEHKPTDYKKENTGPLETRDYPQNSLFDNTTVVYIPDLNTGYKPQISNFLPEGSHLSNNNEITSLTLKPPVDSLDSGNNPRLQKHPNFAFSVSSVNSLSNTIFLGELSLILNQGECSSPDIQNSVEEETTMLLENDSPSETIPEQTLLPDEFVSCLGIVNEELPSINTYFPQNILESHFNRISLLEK
Method in brief: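 IC50 values were fitted with a 4-parameter Hill equation to luciferase signal, scaled between IL-23-only wells (0% inhibition) and 30 μM reference inhibitor (100%). The readout was a STAT-inducible reporter in IL-23R/IL-12Rβ1 HEK293 cells, stimulated with added 10 ng/mL IL-23 (EC90) for 5 h at 37° C and developed with BioGlo.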

Row | pIC50 (IL-23R) | Structure (SMILES) | pIC50 [1]
1 | ≤ 6.30 | CC(=O)NCCCC[C@@H]1NC(=O)[C@H](Cc2c[nH]c3c(C)cccc23)NC(=O)[C@H]([C@@H](C)O)NC(=O)[C@H](CC(N)=O)NC(=O)[C@@H](NC(=O)[C@@H](CCCNC(=N)N)NC(C)=O)C(C)(C)SSC(C)(C)[C@@H](C(=O)N[C@@H](Cc2ccc(OCCN)cc2)C(=O)N[C@@H](Cc2ccc3ccccc3c2)C(=O)NC2(C(=O)N[C@@H](CCCCNC(=O)CCC(=O)N[C@H](CC(=O)O)C[N+](C)(C)C)C(=O)N[C@@H](CC(N)=O)C(=O)N[C@@H](Cc3cccnc3)C(=O)N(C)CC(=O)N[C@@H](CCCCNC(=O)COCCOCCNC(=O)COCCOCCNC(=O)CC[C@H](NC(=O)CCCCCCCCCCCCCCCCC(=O)O)C(=O)O)C(N)=O)CCOCC2)NC1=O [compound 51, MeCO-r-Pen(3)-N-T-7MeW-K(Ac)-Pen(3)-AEF-2Nal-THP-K(d)-N-3Pya-Sar-K(PEG2PEG2gEC18OH)-CONH2] (Ac-[dR][Pen]NT[Trp(7-Me)]K(Ac)[Pen][AEF][2Nal][Thp]K([Suc-X2])N[3Pal][Sar]K([AEEA-AEEA-γGlu-C18 diacid])-NH2; disulfide 2-7) | > 9.30
2 | > 7.30 | CC(=O)NCCCC[C@@H]1NC(=O)[C@H](Cc2c[nH]c3c(C)cccc23)NC(=O)[C@H]([C@@H](C)O)NC(=O)[C@H](CC(N)=O)NC(=O)[C@@H](NC(C)=O)C(C)(C)SSC(C)(C)[C@@H](C(=O)N[C@@H](Cc2ccc(OCCN)cc2)C(=O)N[C@@H](Cc2ccc3ccccc3c2)C(=O)NC2(C(=O)N[C@@H](CCC(=O)O)C(=O)N[C@@H](CC(N)=O)C(=O)N[C@@H](Cc3cccnc3)C(=O)N(C)CC(=O)N[C@@H](CCCCNC(=O)COCCOCCNC(=O)COCCOCCNC(=O)CC[C@H](NC(=O)CCCCCCCCCCCCCCCCC(=O)O)C(=O)O)C(N)=O)CCOCC2)NC1=O [compound 27, MeCO-Pen(3)-N-T-7MeW-K(Ac)-Pen(3)-AEF-2Nal-THP-E-N-3Pya-Sar-K(PEG2PEG2gEC18OH)-CONH2] | > 9.30
3 | > 7.30 | CC(=O)N(C)CCCC[C@@H]1NC(=O)[C@H](Cc2c[nH]c3c(C)cccc23)NC(=O)[C@H]([C@@H](C)O)NC(=O)[C@H](CC(=O)N(C)C)NC(=O)[C@@H](NC(=O)CCOCCOCC[N+](C)(C)C)C(C)(C)SSC(C)(C)[C@@H](C(=O)N[C@@H](Cc2ccc(OCCOCCOCC[N+](C)(C)C)cc2)C(=O)N[C@@H](Cc2ccc3ccccc3c2)C(=O)NC2(C(=O)N[C@@H](CCCCN(C)C(C)=O)C(=O)N[C@@H](CC(N)=O)C(=O)N[C@@H](Cc3cccnc3)C(=O)N(C)[C@@H](CCCCNC(=O)CCOCCOCCOCCOCCOCCOCCOCCOCCOCCOCCOCCOCCNC(=O)CC[C@H](NC(=O)CCCCCCCCCCCCCCCCC(=O)O)C(=O)O)C(N)=O)CCOCC2)NC1=O [compound 107, cPEG3aCO-Pen(3)-N(N(Me)2)-T-7MeW-K(NMeAc)-Pen(3)-APEG3F-2Nal-THP-K(NMeAc)-N-3Pya-NMeK(PEG12gEC18OH)-CONH2] ({Me3N+(CH2)2O(CH2)2O(CH2)2CO}-[Pen]D(NMe2)T[Trp(7-Me)][Lys(Me)](Ac)[Pen]Y(CH2CH2OCH2CH2OCH2CH2NMe3+)[2Nal][Thp][Lys(Me)](Ac)N[3Pal][NMeK]([PEG12-γGlu-C18 diacid])-NH2; disulfide 1-6) | > 9.30
4 | > 7.30 | CC(=O)N(C)CCCC[C@@H]1NC(=O)[C@H](Cc2c[nH]c3c(C)cccc23)NC(=O)[C@H]([C@@H](C)O)NC(=O)[C@H](CC(=O)N(C)C)NC(=O)[C@@H](NC(=O)CCOCCOCCOCCOCCOCCOCCOCCOCCOCCOCCOCCOCCNC(=O)CC[C@H](NC(=O)CCCCCCCCCCCCCCCCC(=O)O)C(=O)O)C(C)(C)SSC(C)(C)[C@@H](C(=O)N[C@@H](Cc2ccc(OCCCCC[N+](C)(C)C)cc2)C(=O)N[C@@H](Cc2ccc3ccccc3c2)C(=O)NC2(C(=O)N[C@@H](CCCCN(C)C(C)=O)C(=O)N[C@@H](CC(N)=O)C(=O)N[C@@H](Cc3cccnc3)C(=O)N(C)CC(=O)N(C)C)CCOCC2)NC1=O [compound 95, HOC18gEPEG12CO-Pen(3)-N(N(Me)2)-T-7MeW-K(NMeAc)-Pen(3)-TMAPF-2Nal-THP-K(NMeAc)-N-3Pya-Sar-CON(Me)2] ({C18 diacid-γGlu-PEG12}-[Pen]D(NMe2)T[Trp(7-Me)][Lys(Me)](Ac)[Pen]Y(X1)[2Nal][Thp][Lys(Me)](Ac)N[3Pal][Sar]-NMe2; disulfide 1-6) | > 9.30
